This note sets out measurements from patent US20030212034A1, “Method of treatment of obesity and paralyzed muscle and ergogenic aids” (priority 2002, published 2003).

The structures appear in SMILES notation.

What all share (type): in vivo, rat
For series [1], the system named is acetyl-CoA carboxylase (ACC). Put plainly: ACC activity and citrate dependence in denervated and contralateral muscles after acute AICAR injection. The settings on record: for ACC activity vs saline, several citrate concentrations / ACC activity at 0.2 mM citrate vs saline-treated contralateral innervated soleus: acute AICAR 1 mg/g; for ACC activity vs saline, several citrate concentrations: FIG. 10; for ACC activity at 0.2 mM citrate vs saline-treated contralateral innervated soleus: FIG. 9. The text has this:
Rats were anesthetized with ether and the sciatic nerve of the right hindlimb was severed. The left hindlimb was sham operated to serve as a control. Both skin wounds were closed with a metal clips. The rats used for the acute study were also implanted with a jugular catheter which was exteriorized on the back of the neck at the time of denervation for rapid administration of anesthesia.
Rats were denervated between 8:30 a.m. and 10:30 a.m. and were then given 25 g of food. Rats were handled twice during the day to accustom them to being handled. The rats were given a single subcutaneous injection 24 hours. after surgery of either AICAR (1 mg/g body weight) in sterile 0.9% NaCl or with just 0.9% NaCl, and were subsequently anesthetized intravenously. Soleus and gastrocnemius muscles from both sham and denervated sides were extracted and quick frozen in liquid nitrogen for analysis. AMPK activity and acetyl-Co A carboxylase (ACC) activity were determined as previously described. Winder W W & Hardie D G, Am J. Physiol 270 (Endocrinol Metab 33): E299-E304, 1996. Because this analysis is done on homogenates prepared by ammonium sulfate precipitation, only those effects on AMPK activity modified by phosphorylation are measured. […] Because ACC is a target for phosphorylation by AMPK, and because ACC activity has been reported to decrease in response to phosphorylation by AMPK, ACC activity is measured to give an indication of the in vivo actions of AMPK.
Referring to FIG. 10, Citrate dependence of acetyl-CoA carboxylase (ACC) in denervated and contralateral innervated gastrocnemius muscles from rats treated with AICAR (1 mg AICAR in 0.9% NaCl/1 g body weight) or saline (0.9% NaCl) is illustrated. SE values were determined but are not shown (n=5).Curves were fitted to data by using the Hill equation and Grafit software (Sigma Chemical, St. Louis, Mo.). FIG. 10 graphs the specific activity of ACC in saline-treated and AICAR-treated gastrocnemius muscles at several different citrate concentrations.

The nature of series [2]: Food intake, body weight and organ weights after 4 weeks of daily AICAR injection. On the procedure:
To determine the effect of chronic injection of AICAR on muscle enyzme activities or expression and on muscle GLUT4, rats were injected subcutaneously (between 8 and 10 a.m.) with AICAR (1 mg/g) or saline vehicle daily for 28±1 days in succession. Beginning with the first injection, controls were pair fed with AICAR-injected rats. Rats were anesthetized by intraperitoneal injection of pentobarbital sodium 22-25 hours after the last AICAR injection and the white and red regions of the quadriceps and the soleus muscles were removed and frozen as described above. Muscles were kept frozen at −70° C. until analyzed. Liver, heart, kidney, and fat pads were weighed.

The test system of series [3] is δ-Aminolevulinate synthase. Put plainly: Muscle δ-aminolevulinate synthase protein by western blot after AICAR injection. On the procedure:
[…] Beginning with the first injection, controls were pair fed with AICAR-injected rats. […] Muscles were kept frozen at −70° C. until analyzed. Liver, heart, kidney, and fat pads were weighed.
For the chronic effects of AICAR injection muscles were analyzed for glycogen GLUT-4, hexokinase, lactate dehydrogenase, and several mitochondrial enzymes. Hassid, W. Z., & S. Abraham Methods Enzymol. 3:35-36, 1957. GLUT4 was quantitated by western blotting as described previously using GLUT4 polyclonal antibody RaIRGT, Biogenesis, Sandown, N.H.) and horseradish peroxidase-conjugated donkey anti-rabbit IgG (Amersham Life Science, Arlington Heights, Ill.). Holmes, B. F., et al. J. Appl Physiol 87:1990-1995, 1999. δ-Aminolevulinic acid synthase was determined using western blotting techniques as described previously. Li, B., et al. J. Biol. Chem. 274:17534-17540, 1999. […] Cytochrome c was detected by incubating the nitrocellulose blots with a rabbit polyclonal antibody against rabbit heart cytochrome c (Alpha Diagnostics International, San Antonio) followed by horseradish peroxidase-conjugated anti-rabbit immunoglobulin G. Antibody bound GLUT4, δ-Aminolevulinic acid synthase, and cytochrome c were visualized using enhanced chemiluminescence. Protein bands were quantified by densitometry.

The mark [4] stands for this setting: AICAR 1 mg/g s.c. daily for four weeks.

For the compound `NC(=O)c1ncn([C@@H]2O[C@H](CO)[C@@H](O)[C@H]2O)c1N` [AICAR, 5-aminoimidazole-4-carboxamide-1-β-D-ribofuranoside], the “ACC activity vs saline, several citrate concentrations” value in series [1] (contralateral innervated gastrocnemius) was “significantly decrease ACC activity”. Also, in series [1] (contralateral soleus), the “ACC activity at 0.2 mM citrate vs saline-treated contralateral innervated soleus” value is reported as “significantly (P<0.01) decreased”. For the same compound, the “ACC citrate activation constant (Ka)” value in series [1] (denervated gastrocnemius, acute AICAR 1 mg/g s.c., saline-treated denervated 3.6±0.3) was determined as 13.2±1.1. For the same compound, the “ACC maximal velocity (Vmax) as a function of citrate concentration” value in series [1] (denervated gastrocnemius, acute AICAR 1 mg/g s.c., saline-treated denervated 36.7±5) was 24.7±1.9. Besides, the “ACC activity vs saline, several citrate concentrations” value in series [1] (denervated gastrocnemius) is listed as “significantly decrease ACC activity”. Moreover, the “ACC activity at 0.2 mM citrate vs saline-treated contralateral innervated soleus” value in series [1] (denervated soleus) was “significantly (P<0.01) decreased”. In series [2] (setting [4]), the “Epididymal Fat Pad weight” value is reported as 1.21 ± 0.10 g, the Heart weight was determined as 0.80 ± 0.02 g, the Kidney weight is 0.99 ± 0.02 g and the Liver weight worked out at 16.0 ± 0.50 g. In addition, the “Retroperitoneal Fat Pad weight” value in series [2] (setting [4]) is 0.90 ± 0.08 g. In addition, the “Body Weight” value in series [2] (AICAR 1 mg/g s.c. daily for four weeks, pair-fed controls) was 254 ± 5 g. Besides, the “food intake and body weight vs saline injected rats” value in series [2] (AICAR for 4 weeks, FIG. 1) is given as “No statistically significant differences”. The “effect of a single injection on δ-aminolevulinate synthase” value in series [3] (single AICAR injection 16 hours prior to tissue collection, preliminary, data not shown) is “negative results”. Also, the “muscle content of δ-aminolevulinic acid synthase vs saline controls” value in series [3] (white quadriceps, AICAR 4 weeks, FIG. 2) is on record as “significantly increased”.
